These results are taken from patent EP0117302A2, “Phenothiazine derivatives” (THE WELLCOME FOUNDATION LIMITED, priority 1982, dated 1984).

Series [1] deals with histamine. The series is described as follows: In vitro antihistamine activity: histamine concentration-response curves on isolated ileum longitudinal muscle, Schild plot. The series is classed as cell-based, guinea-pigs. As to conditions: guinea-pig ileum longitudinal muscle, one hour incubation with test compound, antagonism of histamine; for pA2: 60 min; for Kb: Cavia porcellus, 1 h, read-out: pA2 (converted). The procedure:
A. In vitro antihistamine activity: The longitudinal muscle was isolated from the intact ileum of guinea-pigs (Hartley, male 250-400g) and placed in an organ bath under 300 mg tension. […] Following washing, the tissues were incubated for one hour with the test compound and then a second histamine concentration-response curve was run. […] Regression of Log (dr-1) on Log [B], where dr is an equiactive response in the presence and absence of antagonist and [B] is the molar concentration of antagonist, allowed an estimate of pA2, i.e. the negative log of the concentration of antagonist which shifts the control histamine concentration response curve 2X to the right.

In another series the test system is compound 48/80. The series is described as follows: Inhibition of compound 48/80 induced anaphylactoid reaction. The series is classed as in vivo, Wister rats. The following applies: Rattus norvegicus, rats, compound administered 2 hrs. prior to test, read-out: ED50 (dose providing 50% protection against death induced by compound 48/80). The protocol:
Non-fasted, Wister rats (180-300g).were dosed with the test compound, (i.p. or p.o.) 2 hours before compound 48/80 challenge. One hour prior to challenge, 5 mg/kg i.p. of propranolol was administered. The anaphylactoid inducing agent, compound 48/80, was given intravenously at 2 mg/kg and the animals were monitored for symptoms of respiratory distress.
Data were analyzed by Probit determinations. the response was quantitated by determining the dose of test compound which protected 50% of the animals from death at a given time point.
Agents which block the effects of compound 48/80 are commonly classified as inhibitors of anaphylactic mediators or inhibitors of the release of anaphylic mediators.

Series [2] can be described thus: Pharmacokinetic studies: relative distribution in brain and plasma. The series is classed as in vivo. As to conditions: rodents, compared with promethazine.
Series [3] concerns histamine. Nature of the series: In vivo antihistaminic activity: protection against histamine aerosol challenge. The following applies: Cavia porcellus, po, guinea pigs.
Procedure: B. In vivo Antihistaminic Activity: Guinea pigs (Hartley, male, 300-350 g) were fasted for 20 hours and then dosed p.o. or i.p. with the test compound. One hour after dosing, on an individual basis, the guinea pigs were placed in a clear plastic chamber which was saturated and continually gassed with 0.25% histamine from an aerosol nebulizer. The guinea pigs were monitored for signs of histamine anaphylaxis (e.g. cough, sneeze, strong abdominal movements, cyanoses or loss of righting). […] ED50's for protection against histamine were calculated by probit analysis. […] Complete protection was defined as no histamine symptoms for six minutes in the aerosol chamber (approximately 10X the collapse time of the control animals).
A short description of series [4]: Acute toxicity (approximate LD50). As to conditions: rat, in vivo, rats.

Like-named read-outs stand apart in the source and are kept apart here.

In turn, “10-(2-dimethylaminopropyl)phenothiazine-4(or 1)-carboxylic acid [Compound G]” registered a pA2 in the series with histamine [1] of 6.8.
Same read-out and setting: the same measure for “4 (or 1)-(2-carboxyethyl)-10-(2-dimethylaminopropyl)-phenothiazine [Compound I]”: 7.2.
For `CCOC(=O)C(C)(C)c1ccc2c(c1)N(CC(C)N(C)C)c1ccccc1S2` (centres unmarked) [Compound O, Ethyl 2-[10-(2-dimethylaminopropyl)-2-phenothiazinyl]-2-methylpropionate], the Kb with histamine [1] is 3.16 nM.
`CC(C(=O)O)c1ccc2c(c1)N(CC(C)N(C)C)c1ccccc1S2` (centres unmarked) [Compound C, 2-[10-(2-Dimethylaminopropyi)phenothiazin-2-yl]propionic acid]: the Kb with histamine [1] is 7.94 nM. Besides, the ED50 in the series with compound 48/80 (ip) came to 1.43 mg/kg.
Turning to `CN1CCC(=C2c3ccccc3CC(=O)c3sccc32)CC1` [Ketotifen, reference compound], the ED50 in the series on compound 48/80 (ip) worked out at 0.87 mg/kg.
Turning to `CC(CN1c2ccccc2Sc2ccc(/C=C/C(=O)O)cc21)N(C)C` (stereo not drawn) [Compound A, trans-β-[10-(2-Dimethylaminopropyl)phenothiazin-2-yl]acryiic acid], the brain penetration result in series [2] is recorded as “do not readily penetrate the brains of rodents”. The Kb in the series with histamine [1] is 6.31 nM. For the same compound, the ED50 in the series with compound 48/80 (ip) came out at 2.64 mg/kg; with histamine [3] (0.25% histamine aerosol, 1 hour post-dosing, read-out: ED50), 1.7 mg/kg; with histamine [3] (24 hours protection, read-out: ED50 for 24 hours protection), 11 mg/kg.
Turning to `CC(CN1c2ccccc2Sc2ccc(CC(=O)O)cc21)N(C)C` (centres unmarked) [Compound B, 2-[10-(2-Dimethylaminopropyl)phenothiazin-2-yl]acetic acid], the brain penetration entry in series [2] was “do not readily penetrate the brains of rodents”. Besides, the Kb in the series with histamine [1] is 0.398 nM. Further, the ED50 is 0.89 mg/kg in the series with compound 48/80 (ip); 1.2 mg/kg with compound 48/80 (po); 0.3 mg/kg in the series with histamine [3] (0.25% histamine aerosol, 4 hours post dosing, read-out: ED50). Moreover, the LD50 in series [4] (ip) is roughly 210 mg/kg; in series [4] (po) it was greater than 500 mg/kg.
As for `CCOC(=O)Cc1ccc2c(c1)N(CCN(C)C)c1ccc(C)cc1S2` [Compound L, Ethyl [10-(2-dimethylaminoethyl)-7-methyl-2-phenothiazinyl]acetate], the Kb with histamine [1] was 0.794 nM.
“[10-(2-diethylaminoethyl)-7-fluoro-2-phenothiaznyl]acetic acid [Compound N]”: in the series on histamine [1], the pA2 is reported as 8.6.
For the compound `COc1ccc(CCN2CCC(Nc3nc4ccccc4n3Cc3ccc(F)cc3)CC2)cc1` [Astemizole, reference compound], the ED50 in the series with compound 48/80 (ip) worked out at 1.08 mg/kg.
On to `CC(CN1c2ccccc2Sc2cc(C(=O)O)ccc21)N(C)C` (centres unmarked) [Compound D, 10-(2-dimethylaminopropyI)phenothiazine-3-carboxylic acid], for which the Kb with histamine [1] is 631 nM.
Same read-out and setting: the same measure for `CC(CN1c2ccccc2Sc2ccc(C(C)(C)C(=O)O)cc21)N(C)C` (centres unmarked) [Compound P]: 1.58 nM; for `CC(CN1c2ccc(Cl)cc2Sc2ccc(CC(=O)O)cc21)N(C)C` (centres unmarked) [Compound K, [7-Chloro-10-(2-dimethylaminopropyl)-2-phenothiazinyl]acetic acid]: 1.58 nM; for `CC(CN1c2ccccc2Sc2cc(CCC(=O)O)ccc21)N(C)C` (centres unmarked) [Compound F, 3-(2-carboxyethyl)-10-(2-dimethylaminopropyl)phenothiazine]: 6310 nM.
Still for that read-out and setting: the value for `CC(CN1c2ccccc2Sc2ccc(C(=O)O)cc21)N(C)C` (centres unmarked) [Compound S, 10-(2-Dimethylaminopropyl)phenothiazin-2-yl-carboxylic acid] was 1 nM.
In the series on histamine [1], “E-4 (or 1)-(2-carboxyvinyl)-10-(2-dimethylaminopropyl)phenothiazine [Compound H]” displayed a pA2 of 7.8.
On to `CCOC(=O)Cc1ccc2c(c1)N(CC(C)N(C)C)c1ccc(Cl)cc1S2` (centres unmarked) [Compound J], for which the Kb with histamine [1] is 1 nM.
Regarding `CC(CN1c2ccccc2Sc2cc(/C=C/C(=O)O)ccc21)N(C)C` (centres unmarked) [Compound E, E-3-(2-carboxyvinyl)-10-(2-dimethylaminopropyl)-phenothiazine], in the series with histamine [1], the Kb is 631 nM. For the same compound, the ED50 in the series with compound 48/80 (ip) amounted to 3.11 mg/kg.
Take `Cc1ccc2c(c1)Sc1ccc(CC(=O)O)cc1N2CCN(C)C` [Compound M, [10-(2-Dimethylaminoethyl)-7-methyl-2-phenothiazinyl]acetic acid]: the Kb in the series on histamine [1] is 1.26 nM.
Still for that read-out and setting: the same measure for `CN(C)CCCN1c2ccccc2Sc2ccc(C(C)(C)C(=O)O)cc21` [Compound Q, 2-[10(3-dimethylaminopropyl)-2-phenothiazinyl]-2-methylpropionic acid]: 2 nM.
